Experimental data published in patent US20230226227A1, “PROSTATE SPECIFIC MEMBRANE ANTIGEN (PSMA) LIGANDS AND USES THEREOF” (ADVANCED ACCELERATOR APPLICATIONS (ITALY) SRL, priority 2019, published 2023).

Assays:
[1] = In vivo distribution in healthy CD-1 mice; set-up: species or system CD-1 healthy mice
Experimental: In vivo distribution studies were performed in CD-1 healthy mice using Ga-labelled PSMA-R2, which was administered intravenously at a dose of 120-150 µCi (4.44 - 5.55 MBq). At specific time points after intravenous injection, animals (3 or 4/group) were sacrificed, organs collected, weighted and evaluated in a gamma counter.

[2] = tested on: PC-3 PSMA positive and PSMA negative tumor xenografts; assay: In vivo distribution in tumor models (PSMA positive PIP and negative Flu xenografts); set-up: species or system athymic nude male mice; conditions: for Salivary glands uptake: 0.5 h post injection; for Kidney uptake / Tumor uptake / Tumor-to-kidney ratio: 1 h post injection
Experimental: Athymic nude male mice bearing the PC-3 PSMA positive and PSMA negative tumor xenografts were injected with approximately 4.5 MBq of ^68Ga-PSMA-R2, and subsequently assessed for biodistribution and imaging studies. At 4 time points (30 min, 1 h, 2 h and 4 h) post injection (p.i.), tumor and organ uptake was determined using a gamma-counter. To assess receptor-specificity additional groups of animals were coinjected with an excess of unlabeled PSMA-R2 (40 nmol).
The same study was performed with ^68Ga-PSMA-cpd 2, a comparative compound of the following formula: […]

[3] = tested on: PC3-PIP (PSMA positive) tumor; assay: In vivo efficacy in PC3-PIP PSMA positive model; set-up: species or system mice; conditions: single injection of 111 MBq; p<0.001
Experimental: An efficacy study was conducted in a prostate cancer model using Lu-labelled PSMA-R2).
Mice bearing PC3-PIP (PSMA positive) tumor were injected once with 111 MBq of ^177Lu-PSMA-R2, ^177Lu-PSMA-617, included as reference compound, or with saline (control).
Tumor volume is expressed either as an absolute value (mm^3) or relatively to the volume measured at the time of the first injection.

[4] = Plasma protein binding by ultrafiltration, rat plasma; type: in vitro ADME; conditions: read-out: fu (%) fraction unbound
Experimental: (§1) Plasma protein binding of PSMA-R2 and ^175Lu-PSMA-R2 has been determined by ultrafiltration method, after incubation of the compounds in human, mouse, rat and minipig plasma at two different concentrations: 1 and 5 µg/mL.

[5] = Plasma protein binding by ultrafiltration, minipig plasma; type: in vitro ADME; conditions: read-out: fu (%) fraction unbound
Experimental: as §1

[6] = Plasma protein binding by ultrafiltration, human plasma; type: in vitro ADME; conditions: human plasma
Experimental: as §1

[7] = Plasma protein binding by ultrafiltration, mouse plasma; type: in vitro ADME
Experimental: as §1

[8] = In vitro stability in plasma (human); type: in vitro ADME; conditions: 37° C., after 2 hours
Experimental: Stability of PSMA-R2 ligand was assessed in vitro after incubation with plasma from four different species (mouse, rat, mini-pig and human). PSMA-R2 was incubated at 37° C. in the different matrices, at a final concentration of 10 µg/mL, for 30, 60 and 120 minutes. The samples were analyzed by LC-MS/MS method.

[9] = 1 µg/mL, read-out: fu (%) fraction unbound
[10] = 5 µg/mL, read-out: fu (%) fraction unbound
[11] = 1 and 5 µg/mL, read-out: Unbound fraction, range over labelled and unlabelled form

Question: With O=C(O)CCC(NC(=O)NC(CCCCN(Cc1ccc(Br)cc1)C(=O)CCCCCNC(=O)CN1CCN(CC(=O)O)CCN(CC(=O)O)CCN(CC(=O)O)CC1)C(=O)O)C(=O)O.[68Ga] (stereo not shown) [^68Ga-PSMA-R2] as the molecule, how does the Liver uptake ([1]; 30 minutes after intravenous injection) read?
Answer: 0.74%

Question: And the Liver uptake ([1]; 4 hours after intravenous injection)?
Answer: 0.21%

Question: What about the “Radiotracer uptake in remaining organs (intestine, pancreas, muscle, bone)” value ([1]; all time-points) of the same molecule?
Answer: Low

Question: And the “Radiotracer uptake in blood, adrenals, lungs, thyroid” value ([1]; earliest time-point (30 min), decreased rapidly later)?
Answer: slightly high

Question: And the “Excretion route (uptake in kidneys and bladder)” value ([1]; intravenous)?
Answer: excreted through the renal system

Question: What about the Salivary glands uptake [2] of the same molecule?
Answer: 0.81% (0.5 h)

Question: And the Kidney uptake [2]?
Answer: 6% (1 h)

Question: And the Tumor uptake [2]?
Answer: 29% (1 h)

Question: And the Tumor-to-kidney ratio [2]?
Answer: 5 (1 h)

Question: What does the source list for O=C([O-])CN1CCN(CC(=O)[O-])CCN(CC(=O)NCC2CCC(C(=O)N[C@@H](Cc3ccc4ccccc4c3)C(=O)NCCCC[C@H](NC(=O)N[C@@H](CCC(=O)O)C(=O)O)C(=O)O)CC2)CCN(CC(=O)[O-])CC1.[177Lu+3] (stereo partly shown) [^177Lu-PSMA-617, reference compound]?
Answer: Absolute tumor volume in comparison to control group [3]: significantly reduced; Relative tumor volume in comparison to control group [3]: significantly reduced

Question: Which fraction unbound at 1 µg/mL ([4]; 1 µg/mL) does the source give for O=C(O)CCC(NC(=O)NC(CCCCN(Cc1ccc(Br)cc1)C(=O)CCCCCNC(=O)CN1CCN(CC(=O)O)CCN(CC(=O)O)CCN(CC(=O)O)CC1)C(=O)O)C(=O)O (stereo not shown) [PSMA-R2] here?
Answer: 0.256 ± 0.018

Question: And the fraction unbound at 5 µg/mL ([4]; 5 µg/mL)?
Answer: 0.226 ± 0.011

Question: What about the fraction unbound at 1 µg/mL ([5]; 1 µg/mL) of the same molecule?
Answer: 0.407 ± 0.043

Question: What about the fraction unbound at 5 µg/mL ([5]; 5 µg/mL) of the same molecule?
Answer: 0.353 ± 0.085

Question: And the fraction unbound at 1 µg/mL [6, 9]?
Answer: 0.299 ± 0.046

Question: What about the fraction unbound at 5 µg/mL [6, 10] of the same molecule?
Answer: 0.23 ± 0.005

Question: What about the fraction unbound [6, 11] of the same molecule?
Answer: 0.25 to 0.45

Question: What about the fraction unbound at 1 µg/mL [7, 9] of the same molecule?
Answer: 0.862 ± 0.111

Question: What about the fraction unbound at 5 µg/mL [7, 10] of the same molecule?
Answer: 0.727 ± 0.015

Question: And the fraction unbound [7, 11]?
Answer: 0.7 to 0.86

Question: And the recovery at 2 h, 10 µg/mL [8]?
Answer: 85%

Question: Which Salivary glands uptake [2] does the source give for O=C(O)CC[C@H](NC(=O)N[C@@H](CCCCN(Cc1ccc(Br)cc1)C(=O)CCCCNC(=O)CN1CCN(CC(=O)O)CCN(CC(=O)O)CCN(CC(=O)O)CC1)C(=O)O)C(=O)O.[68Ga] [^68Ga-PSMA-cpd2, reference compound] here?
Answer: 0.95% (0.5 h)

Question: And the Kidney uptake [2]?
Answer: 13% (1 h)

Question: And the Tumor uptake [2]?
Answer: 36% (1 h)

Question: What about the Tumor-to-kidney ratio [2] of the same molecule?
Answer: 3 (1 h)

Question: For O=C([O-])CN1CCN(CC(=O)[O-])CCN(CC(=O)NCCCCCC(=O)N(CCCC[C@H](NC(=O)N[C@@H](CCC(=O)O)C(=O)O)C(=O)O)Cc2ccc(Br)cc2)CCN(CC(=O)[O-])CC1.[177Lu+3] [^177Lu-PSMA-R2], which “Absolute tumor volume in comparison to control group” value [3] is on record?
Answer: significantly reduced

Question: What about the “Relative tumor volume in comparison to control group” value [3] of the same molecule?
Answer: significantly reduced
